In publication PMC524646 (Journal of Insect Science, 2003):

How the values were obtained:
[1] = molecular target: T1, Ecdysteroid receptor complexes extracted from BII cells (Drosophila melanogaster, UniProt P34021); assay: Cell-free receptor assay with receptor complexes extracted from BII cells; format: binding; settings: ratio of Kd in cell-free BII extract to EC50 in BII bioassay
T1 sequence (P34021 1-878): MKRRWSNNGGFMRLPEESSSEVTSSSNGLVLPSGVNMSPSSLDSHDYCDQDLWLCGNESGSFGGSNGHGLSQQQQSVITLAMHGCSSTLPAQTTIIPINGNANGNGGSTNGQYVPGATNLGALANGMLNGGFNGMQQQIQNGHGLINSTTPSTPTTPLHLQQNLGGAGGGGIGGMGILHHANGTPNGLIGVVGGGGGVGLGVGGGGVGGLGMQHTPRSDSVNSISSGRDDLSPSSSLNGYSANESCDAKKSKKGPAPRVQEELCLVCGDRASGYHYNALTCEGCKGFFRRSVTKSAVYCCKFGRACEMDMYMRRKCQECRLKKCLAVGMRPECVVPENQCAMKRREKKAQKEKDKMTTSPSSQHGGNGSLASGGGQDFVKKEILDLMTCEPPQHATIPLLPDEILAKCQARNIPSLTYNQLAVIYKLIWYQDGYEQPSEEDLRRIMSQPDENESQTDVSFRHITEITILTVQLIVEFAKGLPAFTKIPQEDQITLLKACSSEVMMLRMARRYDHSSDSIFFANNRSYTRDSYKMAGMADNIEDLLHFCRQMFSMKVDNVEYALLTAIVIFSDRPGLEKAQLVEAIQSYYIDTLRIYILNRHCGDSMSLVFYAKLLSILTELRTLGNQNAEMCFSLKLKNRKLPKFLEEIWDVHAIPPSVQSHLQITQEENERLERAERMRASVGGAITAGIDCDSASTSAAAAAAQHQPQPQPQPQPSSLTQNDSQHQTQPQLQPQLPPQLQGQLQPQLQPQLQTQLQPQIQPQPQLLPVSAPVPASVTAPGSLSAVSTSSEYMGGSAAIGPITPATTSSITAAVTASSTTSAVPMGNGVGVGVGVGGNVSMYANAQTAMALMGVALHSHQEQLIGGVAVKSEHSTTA
T1 sequence (P20153 1-508 partner): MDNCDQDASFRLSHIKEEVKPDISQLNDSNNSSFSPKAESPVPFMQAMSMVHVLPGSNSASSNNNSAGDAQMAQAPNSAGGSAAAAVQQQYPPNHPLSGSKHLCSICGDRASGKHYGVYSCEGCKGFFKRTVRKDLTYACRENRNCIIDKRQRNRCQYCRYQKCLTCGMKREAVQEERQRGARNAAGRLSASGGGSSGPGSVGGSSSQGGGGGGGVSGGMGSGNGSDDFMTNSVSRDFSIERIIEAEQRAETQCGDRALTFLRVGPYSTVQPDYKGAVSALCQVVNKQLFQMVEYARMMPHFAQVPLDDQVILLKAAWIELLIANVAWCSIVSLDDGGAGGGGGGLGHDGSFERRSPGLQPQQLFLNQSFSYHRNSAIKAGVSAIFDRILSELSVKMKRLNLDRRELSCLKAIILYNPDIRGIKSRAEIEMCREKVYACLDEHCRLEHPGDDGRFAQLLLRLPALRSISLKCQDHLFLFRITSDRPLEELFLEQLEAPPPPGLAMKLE

BII cells = settings: ref Dinan, 1985; cited from earlier work
[2] = format: physicochemical; settings: after attempted synthesis
[3] = tested on: insect EcR proteins when expressed in mammalian cells and partnered by RXR; settings: altered ligand specificity and affinity; no reference given; cited from earlier work

## CC(C)(O)CC[C@@H](O)[C@](C)(O)[C@H]1CC[C@@]2(O)C3=CC(=O)[C@@H]4C[C@@H](O)[C@@H](O)C[C@]4(C)[C@H]3[C@H](O)C[C@]12C [compound 1, turkesterone]
[1]
  Kd/EC50: very low

## CC(C)(O)CC[C@@H](O)[C@](C)(O)[C@H]1CC[C@@]2(O)C3=CC(=O)[C@@H]4C[C@@H](O)[C@@H](O)C[C@]4(C)[C@H]3CC[C@]12C [compound 6, 20-hydroxyecdysone]
BII cells
  metabolism by BII cells: do not metabolise

## CC(C)(O)CC[C@@H](O)[C@](C)(O)[C@H]1CC[C@@]2(O)C3=CC(=O)[C@@H]4C[C@@H](O)[C@@H](O)C[C@]4(C)[C@H]3[C@H](OC(=O)c3ccccc3)C[C@]12C [turkesterone 11α-benzoate]
[2]
  stability of product: unstable, degrading rapidly back to turkesterone

## CC(C)CC[C@@H](O)[C@](C)(O)[C@H]1CC[C@@]2(O)C3=CC(=O)[C@@H]4C[C@@H](O)[C@@H](O)C[C@]4(C)[C@H]3[C@H](O)C[C@]12C [compound 8, ajugasterone C]
[1]
  Kd/EC50: very low

## CC(C)CC[C@@H](O)[C@](C)(O)[C@H]1CC[C@@]2(O)C3=CC(=O)[C@]4(O)C[C@@H](O)[C@@H](O)C[C@]4(C)[C@H]3[C@H](O)C[C@]12C [compound 9, muristerone A]
[3]
  activity with insect EcR/RXR in mammalian cells: active, but micromolar concentrations are required
[1]
  Kd/EC50: very low
